Measured values taken from patent US10258039B2, “Substituted pyrazolylpyrazole derivative and use of same as herbicide” (KYOYU AGRI CO., LTD., priority 2015, dated 2019).

Assays:
Assay type in all cases: in vivo
Echinochloa crus-galli = assay: Paddy herbicidal activity test; details: irrigated paddy pot, treated at 3.5 leaf stage of Echinochloa crus-galli, 30 days, 30° C.
Procedure: (§1) 1. Paddy Herbicidal Activity Test
(§2) Rice paddy soil was filled into a 1/10000 are pot followed by the addition of suitable amounts of water and chemical fertilizer, kneading, seeding with Echinochloa crus-galli, Monochoria vaginalis and Scirpus juncoides and maintaining in an irrigated state at a water depth of 3 cm.
(§3) Wettable powders of Target Compound (I) shown in. Table 1 prepared in compliance with the preparation examples were diluted with a suitable amount of water, rice plants in the 2.0 leaf stage were transplanted during 3.5 leaf stage of Echinochloa crus-galli, and treated by dropping in chemical in the prescribed amount per 10 are using a pipette.
(§4) After treating for 30 days in a glass greenhouse at an average atmospheric temperature of 30° C., the herbicidal efficacy thereof was investigated.
(§5) Evaluation of herbicidal efficacy was carried out by comparing growth inhibition rate (%) with an untreated group, while evaluation of phytotoxicity was carried out by comparing growth inhibition rate (%) with the state of a complete eradication group, and were evaluated at 11 levels indicated below.

Monochoria vaginalis = assay: Paddy herbicidal activity test; details: irrigated paddy pot, 30 days, 30° C.
Procedure: as §1, §2, §3, §4, §5

Scirpus juncoides = assay: Paddy herbicidal activity test; details: irrigated paddy pot, 30 days, 30° C.
Procedure: as §1, §2, §3, §4, §5

Oryza sativa = assay: Paddy herbicidal activity test, phytotoxicity to transplanted rice; details: rice transplanted at 2.0 leaf stage, 30 days, 30° C.
Procedure: as §1, §2, §3, §4, §5

Amaranthus retroflexus [1] = assay: Farming soil treatment test; details: soil surface spray prior to weed growth, 30 days, 30° C.
Procedure: (§6) 2. Farming Soil Treatment Test
(§7) Field soil was filled into a 1/6000 are pot followed by seeding with Digitaria ciliaris, Chenopodium album and Amaranthus retroflexus and covering with soil.
(§8) Wettable powders of compounds of formula (I) shown in Table 1 prepared in compliance with the preparation examples were diluted with water to the prescribed amount of chemical and uniformly sprayed onto each soil surface layer using 100 liters of sprayed water per 10 are prior to weed growth following seeding.
as §4
(§9) Evaluation of herbicidal efficacy was carried out in the same manner as the above-mentioned Test Example 1.

Chenopodium album [2] = assay: Farming soil treatment test; details: soil surface spray prior to weed growth, 30 days, 30° C.
Procedure: as §6, §7, §8, §4, §9

Digitaria ciliaris [3] = assay: Farming soil treatment test; details: soil surface spray prior to weed growth, 30 days, 30° C.
Procedure: as §6, §7, §8, §4, §9

Amaranthus retroflexus [4] = assay: Weed foliar treatment test (Test 3, 1.0 to 2.0 leaf stage); details: foliar spray at 1.0 to 2.0 leaf stage of Digitaria ciliaris, 3 weeks, 25° C.
Procedure: (§10) 3. Weed Foliar Treatment Test
(§11) Soil was filled into a 1/6000 are pot followed by seeding with Digitaria ciliaris, Chenopodium album and Amaranthus retroflexus, covering with soil, and cultivating in a glass greenhouse at an average atmospheric temperature of 25° C.
(§12) Wettable powders of Target Compound (I) shown in Table 1 prepared in compliance with the preparation examples were diluted with water to the prescribed amount of chemical and uniformly sprayed onto the weeds using 150 liters of sprayed water per 10 are when Digitaria ciliaris had grown to the 1.0 to 2.0 leaf stage.
(§13) After treating for 3 weeks in a glass greenhouse at an average atmospheric temperature of 25° C., the herbicidal efficacy thereof was investigated.
as §9

Chenopodium album [5] = assay: as above; details: foliar spray at 1.0 to 2.0 leaf stage of Digitaria ciliaris, 3 weeks, 25° C.
Procedure: as §10, §11, §12, §13, §9

Digitaria ciliaris [6] = assay: as above; details: foliar spray at 1.0 to 2.0 leaf stage of Digitaria ciliaris, 3 weeks, 25° C.
Procedure: as §10, §11, §12, §13, §9

Digitaria ciliaris [7] = assay: Weed foliar treatment test (Test 4, 4.0 to 5.0 leaf stage); details: 10g a.i./10a; foliar spray at 4.0 to 5.0 leaf stage of Digitaria ciliaris (plant height 10 cm to 15 cm); 20 days, 25° C.
Procedure: (§14) 4. Weed Foliar Treatment Test
(§15) Field soil was filled into a 1/4500 are pot followed by seeding with Digitaria ciliaris and Galinsoga parviflora, covering with soil and cultivating in a glass greenhouse at an average atmospheric temperature of 25° C.
as §12, with “100” for “150”, “4.0” for “1.0”, “5.0” for “2.0”, “stage (plant height: 10 cm to 15 cm).” for “stage.”
(§16) After treating for 20 days in a glass greenhouse at an average atmospheric temperature of 25° C., the herbicidal efficacy thereof was investigated.
as §9

Galinsoga parviflora = assay: as above; details: 10g a.i./10a; foliar spray at 4.0 to 5.0 leaf stage of Digitaria ciliaris; 20 days, 25° C.
Procedure: as §14, §15
as §12, with “100” for “150”, “4.0” for “1.0”, “5.0” for “2.0”, “stage (plant height: 10 cm to 15 cm).” for “stage.”
as §16, §9

## N#Cc1cnn(-c2nn3c(c2Cl)CCCC3)c1NC(=O)C1CC1 [Control agent 4.190, reference compound]
Echinochloa crus-galli; 1g a.i./10a
  herbicidal efficacy, Echinochloa crus-galli: 6 (6: 60% to less than 70%)
Echinochloa crus-galli; 5g a.i./10a
  herbicidal efficacy, Echinochloa crus-galli: 6 (6: 60% to less than 70%)
Monochoria vaginalis; 1g a.i./10a
  herbicidal efficacy, Monochoria vaginalis: 4 (4: 40% to less than 50%)
Monochoria vaginalis; 5g a.i./10a
  herbicidal efficacy, Monochoria vaginalis: 5 (5: 50% to less than 60%)
Scirpus juncoides; 1g a.i./10a
  herbicidal efficacy, Scirpus juncoides: 4 (4: 40% to less than 50%)
Scirpus juncoides; 5g a.i./10a
  herbicidal efficacy, Scirpus juncoides: 5 (5: 50% to less than 60%)
Oryza sativa; 1g a.i./10a
  phytotoxicity, Oryza sativa: 8 (8: 80% to less than 90%)
Oryza sativa; 5g a.i./10a
  phytotoxicity, Oryza sativa: 9 (9: 90% to less than 100%)
Amaranthus retroflexus [1]; 5g a.i./10a
  herbicidal efficacy, Amaranthus retroflexus: 4 (4: 40% to less than 50%)
Amaranthus retroflexus [1]; 10g a.i./10a
  herbicidal efficacy, Amaranthus retroflexus: 4 (4: 40% to less than 50%)
Chenopodium album [2]; 5g a.i./10a
  herbicidal efficacy, Chenopodium album: 5 (5: 50% to less than 60%)
Chenopodium album [2]; 10g a.i./10a
  herbicidal efficacy, Chenopodium album: 6 (6: 60% to less than 70%)
Digitaria ciliaris [3]; 5g a.i./10a
  herbicidal efficacy, Digitaria ciliaris: 3 (3: 30% to less than 40%)
Digitaria ciliaris [3]; 10g a.i./10a
  herbicidal efficacy, Digitaria ciliaris: 4 (4: 40% to less than 50%)
Amaranthus retroflexus [4]; 5g a.i./10a
  herbicidal efficacy, Amaranthus retroflexus: 4 (4: 40% to less than 50%)
Amaranthus retroflexus [4]; 10g a.i./10a
  herbicidal efficacy, Amaranthus retroflexus: 6 (6: 60% to less than 70%)
Chenopodium album [5]; 5g a.i./10a
  herbicidal efficacy, Chenopodium album: 5 (5: 50% to less than 60%)
Chenopodium album [5]; 10g a.i./10a
  herbicidal efficacy, Chenopodium album: 6 (6: 60% to less than 70%)
Digitaria ciliaris [6]; 5g a.i./10a
  herbicidal efficacy, Digitaria ciliaris: 5 (5: 50% to less than 60%)
Digitaria ciliaris [6]; 10g a.i./10a
  herbicidal efficacy, Digitaria ciliaris: 6 (6: 60% to less than 70%)
Digitaria ciliaris [7]
  herbicidal efficacy, Digitaria ciliaris: 2 (2: 20% to less than 30%)
Galinsoga parviflora
  herbicidal efficacy, Galinsoga parviflora: 4 (4: 40% to less than 50%)
